The results in this text go back to patent publication US8614064B2, “Methods of diagnosing atherosclerosis by measuring ApoCI” (The Johns Hopkins University, priority 2003, dated 2013).

Common to all, as to type: cell-based, human
One data set deals with ceramide. In words: Anti-ceramide antibody immunofluorescence microscopy in ASMC. To be noted: 24 h. As for the experimental part: FIGS. 4A-4D depict the effect of ApoCI, ApoCI-enriched HDL, and ApoCI-poor HDL on the level of ceramide in ASMC. Confluent ASMC were incubated with ApoCI (2.5 μg/mL) with time (FIG. 4A, upper left) or with ApoCI-enriched HDL (1 μg apoA-I/mL medium) or ApoCI-poor HDL (5 μg apoA-I/mL medium) (FIG. 4B, upper right) for 30 minutes. FIG. 4C: The cells were incubated with ApoCI alone ([…]) for 5 minutes or preincubated with GW4869 (20 μmol/L) for 30 minutes. After addition of ApoCI (2.5 μg/mL), incubation was continued for 6 hours, 12 hours, and 24 hours. After incubation, cells were harvested and the levels of ceramide determined using the diacylglycerol kinase assay. The level of phosphate was measured and the data (mean±SD) were expressed as percentage of the total ceramide present in untreated cells (vehicle DMSO). *P<0.05. In a separate experiment (FIG. 4D, right), confluent cells were grown on cover slips and pretreated with serum-free medium for 30 minutes. The cells were then incubated with vehicle DMSO alone (control), ApoCI (2.5 μg/ML), or ApoCI (2.5 μg/mL) plus the N-SMase inhibitor GW4869 (20 μmol/L) for 24 hours. The cells were then washed, treated with a primary anticeramide antibody, washed with phosphate-buffered saline, and treated with a fluorescein isothiocyanate-conjugated anti-mouse IgG (FIG. 4C, lower panel).

Another data set deals with N-SMase. As to the kind of experiment: Neutral sphingomyelinase assay in treated ASMC ([14C]sphingomyelin substrate). As for the experimental part:
FIGS. 3A-3C depict the effects of ApoCI, ApoCIII, TNF-α, ApoCI-enriched HDL, and ApoCI-poor HDL on the activity of N-SMase in ASMC. Confluent cultures of ASMC were preincubated for 30 minutes with serum-free (control) medium, then ApoCI (2.5 μg/mL medium), ApoCIII (2.5 μg/mL medium), TNF-α (20 ng/mL medium) (FIG. 3A, top), or ApoCI-enriched HDL (1 μg apoAI/mL medium), or ApoCI-poor HDL (5 μg apoA-I/mL medium) (FIG. 3B, middle) were added individually to cells. The cells were then incubated and harvested at the indicated time points, and the activity was of N-SMase determined using [^14C]sphingomyelin as substrate. The N-SMase activity in control cells was 22 nmol/h per milligram cell protein, and this value was considered as 100% activity. In a separate experiment (FIG. 3C bottom), cells (0.5×10^5) were seeded in P60 Petri dishes and grown in DMEM supplemented with 10% fetal bovine serum for 5 days. After preincubation of cells for 30 minutes in serum-free medium, increasing amounts of ApoCI were added. After incubation for 10 minutes, cells were harvested, and N-SMase activity was measured.
After stimulation with ApoCI ApoCI-enriched HDL and ApoCI-poor HDL, the cells were washed with 5 ml of PBS and harvested. The pellets were stored frozen at −70° C. and resuspended in 0.5 ml of buffer (100 mM Tris-HCl pH 7.4, 0.1% Triton X-100, 1 mM EDTA and protease inhibitors). The cell suspension was sonicated 3 times (3-s bursts) using a probe sonicator and centrifuged at 500×g at 4° C. for 5 min. The supernatant was used as the enzyme source. 100 μg of protein was assayed for neutral sphingomyelinase activity in a buffer consisting of 50 mM Tris-HCl, pH 7.4, 0.1% Triton X-100, 0.1 mg of bovine serum albumin, 5 mM MgCl2 and […] of [^14C]sphingomyelin (specific activity 50 mCi/mmol, from American Radiolabled Chemicals (St. Louis, Mo.). The samples were incubated at 37° C. for 2 h and terminated with the addition of 1 ml of 10% trichloroacetic acid. The precipitate was pelleted (1000×g at 4° C. for 30 min) and 1 ml of the supernatant was extracted with 1 ml of anhydrous diethyl ether. About 0.5 ml of the aqueous phase was removed for liquid scintillation counting (Ghosh, N., and Chatterjee, S. (1998) J. Biol. Chem. 264, 12554-12561).

A further data set relates to caspase-3. In words: Caspase-3 level, Western immunoblot, ASMC. The settings on record: compared with control medium; ApoCI and ApoCIII 2.5 μg/ml, ApoCI-enriched HDL 1 μg apoA-I/ml, ApoCI-poor HDL 5 μg apoA-I/ml. As to the method:
After incubation with ApoCI (2.5 μg/ml medium), ApoCIII (2.5 μg/ml medium), apoC-1-enriched HDL (1 μg apoA-I/ml medium), or ApoCI-poor HDL (5 μg ApoA-I/ml medium) for 24 h and 48 h, the cells were subjected to extraction with a buffer (30 mM HEPES, pH 7.5, 10 mM KCl, 1.5 mM MgCl2, 5 mM DTI, 2 mM phenylmethylsulfonyl fluoride (PMSF), 1% Nonidet P-40, 0.5% sodium deoxycholate, 0.1% SDS, 2 μg/ml leupeptin, 2 μg/ml aprotinin, 0.5 μg/ml benzamidine, and 250 mM sucrose) on ice for 30 min. Next, the samples were centrifuged at 10,000×g at 4° C. The supernatant was utilized as a source of cytochrome c in Western immunoblot assay. The pellets were lysed in RIPA buffer (phosphate buffer saline, 1% Nonidet P-40, 0.5% sodium deoxycholate, 0.1% SDS, and cocktail of inhibitors described above). The samples were passed through a 21-gauge needle to shear the DNA. Next, 10 μl of PMSF (10 mg/ml) was added and incubation continued for 60 min on ice. The samples were centrifuged at 10,000-×g for 10 min at 4° C. The supernatants were used as a source of protein in Western immunoblot assay for determination of caspase activation. Proteins (100 μg) were separated using 4-15% SDS-polyacrylamide gel under denaturing conditions and electro transferred onto nitrocellulose. […]
(Immunoblotting shows a protein as a band on a membrane.)

For `O=C(/C=C/c1ccc(/C=C/C(=O)Nc2ccc(C3=NCCN3)cc2)cc1)Nc1ccc(C2=NCCN2)cc1` [GW4869], in the data set on ceramide (ApoCI 2.5 μg/mL plus GW4869 20 μmol/L), the “effect of GW4869 on ApoCI-induced ceramide immunofluorescence” value was “eliminated”.

Take “ApoCIII: purified human ApoCIII purchased from Academy Bio-Medical Company, used as negative control”: the “pattern of N-SMase stimulation with time” value in the data set on N-SMase (ApoCIII 2.5 μg/mL, ApoCI-poor HDL 5 μg apoA-I/mL, time course to 60 min) is reported as “Such a pattern was not seen”. Also, the “stimulation of caspase-3 level/expression” value in the data set with caspase-3 is “to a lesser extent than ApoCI-enriched HDL”.

Consider “Apolipoprotein C-I (TPDVSSALDKLKEFGNTLEDKARELISRIKQSELSAKMREWFSETFQKVKEKLKIDS; UniProt P02654 27-83, looked up) [ApoCI, 6.6-kDa single-chain plasma protein of 57 amino acids; purified human ApoCI purchased from Academy Bio-Medical Company]”, for which the “anti-ceramide immunofluorescence of treated cells” value in the data set with ceramide (ApoCI 2.5 μg/mL, compared with control cells) is listed as “reacted strongly”. In addition, in the data set with N-SMase (5 min, ApoCI 2.5 μg/mL, TNF-α 20 ng/mL, ApoCI-enriched HDL 1 μg apoA-I/mL, control 22 nmol/h per mg protein = 100%), the “increase in the activity of N-SMase at 5 minutes” value is roughly 2 fold. Further, in the data set with N-SMase (ApoCI 2.5 μg/mL medium, 10 min incubation), the “maximum increase in N-SMase activity, concentration dependence (FIG. 3C)” value came out at 1.5 fold. Also, the “stimulation of caspase-3 level/expression” value with caspase-3 was found to be 4 fold.
